Test results as given in PubChem BioAssay (NCI).
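How tested: cells in 96-well plates exposed to compound for 48 hours at five concentrations. GI50: concentration for 50% inhibition of growth. TGI: concentration producing complete growth inhibition.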

Tests used:
Experiment in all cases: growth of human tumour cells (NCI), 48 h
OVCAR-3 ovarian = test system: OVCAR-3 ovarian
HCT-116 colon = test system: HCT-116 colon
MALME-3M melanoma = test system: MALME-3M melanoma
OVCAR-5 ovarian = test system: OVCAR-5 ovarian
M14 melanoma = test system: M14 melanoma
NCI-H226 lung = test system: NCI-H226 lung
UO-31 renal = test system: UO-31 renal
OVCAR-8 ovarian = test system: OVCAR-8 ovarian
SR leukemia = test system: SR leukemia
SNB-19 CNS = test system: SNB-19 CNS

SMILES | GI50 (OVCAR-3 ovarian) [µM] | TGI (OVCAR-3 ovarian) [µM] | GI50 (HCT-116 colon) [µM] | TGI (HCT-116 colon) [µM] | GI50 (MALME-3M melanoma) [µM] | TGI (MALME-3M melanoma) [µM] | GI50 (OVCAR-5 ovarian) [µM] | TGI (OVCAR-5 ovarian) [µM] | GI50 (M14 melanoma) [µM] | TGI (M14 melanoma) [µM] | GI50 (NCI-H226 lung) [µM] | TGI (NCI-H226 lung) [µM] | GI50 (UO-31 renal) [µM] | TGI (UO-31 renal) [µM] | GI50 (OVCAR-8 ovarian) [µM] | TGI (OVCAR-8 ovarian) [µM] | TGI (SR leukemia) [µM] | GI50 (SNB-19 CNS) [µM] | TGI (SNB-19 CNS) [µM] | GI50 (SR leukemia) [µM]
Oc1cn(-c2ccc(Cl)cc2)nc1-c1n[nH]c(=S)n1-c1ccc(F)cc1 | 22 | > 100 | 11.6 | 25.5 | 25.9 | > 100 | 32 | > 100 | 15.1 | 45 | 26.6 | 90.2 | 25 | > 100 | 27.3 | > 100 | > 100 | 61.9 | > 100 | –
Cc1nc2ccncc2[nH]1 | – | > 100 | – | > 100 | – | > 100 | – | > 100 | – | > 100 | – | > 100 | – | > 100 | – | > 100 | > 100 | – | > 100 | –
CCOC(=O)C1=C(C)N(NC(N)=O)C2(N)N(NC(N)=O)C(C)=C(C(=O)OCC)C12C#N (centres undefined) | – | > 100 | – | > 100 | – | > 100 | – | > 100 | – | > 100 | – | > 100 | – | > 100 | – | > 100 | > 100 | – | > 100 | –
O=C(CCCCN1CCN(CCCCC(=O)Nc2ccccc2C#C/C=C\C#Cc2ccccc2C(F)(F)F)CC1)Nc1ccccc1C#C/C=C\C#Cc1ccccc1C(F)(F)F | 10.6 | 21.8 | 9.18 | 17.8 | 12.2 | 29.5 | 14.4 | > 50 | 11.7 | 25.9 | 40.7 | > 50 | 11.8 | 48 | 12.2 | 28.5 | 16.6 | 11.7 | 32.1 | 3.23
CC(C)(C)C1=NO[C@H]2[C@@H](NC(=O)c3ccccc3)CC[C@@H]12 | – | > 100 | – | > 100 | – | > 100 | – | > 100 | – | > 100 | – | > 100 | – | > 100 | – | > 100 | > 100 | – | > 100 | –
N=C(N)n1cc(/C=N/N=C(N)N)cn1 | – | > 100 | – | > 100 | – | > 100 | – | > 100 | – | > 100 | – | > 100 | – | > 100 | – | > 100 | > 100 | – | > 100 | –
COCOC1CCCC[C@@]1(OCCOCCO[C@@]1(c2ccccc2)CCCC[C@H]1OCOC)c1ccccc1 (some centres undefined) | – | > 100 | – | > 100 | – | > 100 | – | > 100 | – | > 100 | – | > 100 | – | > 100 | – | > 100 | > 100 | – | > 100 | –
CCOC(=O)c1cn(C)c2c(OC)c3ccccc3c(OC)c2c1=O | 5.62 | 25.7 | 19.6 | 38.5 | 8.95 | 30.3 | 30.9 | > 100 | 19.8 | 45 | 23.8 | 57.1 | > 100 | > 100 | 20.2 | 63.7 | 88.6 | 36.6 | > 100 | 28.5
Cn1cc(-c2ccc3ncc(-c4ccc(CC(=O)Nc5cc(C(C)(C)C)nn5C)cc4)cc3c2)cn1 | 1.4 | > 20 | 0.887 | > 20 | 0.721 | > 20 | 7.83 | > 20 | 0.984 | > 20 | 1.05 | 13.3 | 0.331 | 2.08 | 0.736 | 7.08 | > 20 | 3.35 | > 20 | 0.967
C#COc1cccc(Nc2ncnc3cc(NC(=O)[C@@H](C)Cl)ccc23)c1 | 2.68 | > 62.5 | 2.98 | > 62.5 | 20.1 | > 62.5 | 18 | > 62.5 | 3.92 | > 62.5 | 50.1 | > 62.5 | 17.8 | > 62.5 | 18.1 | > 62.5 | > 62.5 | 19.2 | > 62.5 | 3.08
COC(=O)c1ccc(NC(N)=NCCC(C)(C)c2ccc(C(F)(F)F)cc2)nc1 | 1.78 | 4.08 | 1.6 | 3.3 | 1.7 | 3.37 | 2.98 | 13.5 | 1.7 | 3.8 | 3.33 | 18.8 | 2.9 | 15.6 | 2.04 | 4.63 | 2.91 | 3.3 | 11.5 | 0.892
S=C(Sc1ccc(Cl)cc1)Sc1ccc(Cl)cc1 | 1.74 | 3.12 | 1.82 | 3.53 | 2.31 | 4.8 | 2.32 | 4.81 | 2.03 | 3.95 | 2.1 | 4.84 | 1.31 | 2.63 | 3.66 | 12.6 | 2.03 | 3.8 | 16 | 0.362
CC(=O)C1(C(=O)C(=[N+]=[N-])S(=O)(=O)c2ccccc2)CC1 | – | > 100 | – | > 100 | – | > 100 | – | > 100 | – | > 100 | – | > 100 | – | > 100 | – | > 100 | > 100 | – | > 100 | –
CNC(=O)OCc1nc(SSc2nc(COC(=O)NC)c(COC(=O)NC)n2C)n(C)c1COC(=O)NC | – | > 100 | – | > 100 | – | > 100 | – | > 100 | – | > 100 | – | > 100 | – | > 100 | – | > 100 | > 100 | – | > 100 | –
O=C([O-])c1ccc([I+]c2ccccc2)cc1 | – | > 100 | – | > 100 | – | > 100 | – | > 100 | – | > 100 | – | > 100 | – | > 100 | – | > 100 | > 100 | – | > 100 | –
CCN1C(=O)N(CC)C2C1NC(=S)N2/N=C/C=C/c1ccccc1 (centres undefined) | 0.0425 | > 100 | 0.106 | > 100 | 3.55 | > 100 | 0.465 | > 100 | 0.0881 | > 100 | 0.383 | > 100 | 0.192 | > 86.6 | 0.27 | > 100 | > 100 | 0.127 | > 100 | 0.0444
